Measured values reported in patent US20050053555A1, “Appetite control compositions and methods of use” (Crave Busters, LLC., priority 2003, published 2005).

Tested on: sweetness taste receptors of the tongue
Experiment: blocking the sense of sweetness by topical delivery to mouth and tongue
Type: in vivo
Conditions: about 10 mg to about 80 mg glycyrrhizin delivered concurrently with gymnemic acid
From the text: Without being bound to any particular theory of action, it is currently believed that the appetite control compositions according to the invention deliver a relatively small dose of an active ingredient, gymnemic acid, directly to the sweetness taste receptors of the tongue, which blocks the sense of sweetness and thereby produces appetite control.
Gymnema sylvestre is commonly called Gurmar. It is well known in the art as a “sugar blocker.” Gymnema sylvestre contains the bitter principle gymnemic acid, which is well known for its ability to bind to the sweetness taste receptors on the tongue and to sugar absorption sites in the gut. Formerly, Gymnema sylvestre and extracts standardized to deliver gymnemic acid have been incorporated into traditional dosage forms to take advantage of its ability to block the absorption of sugar from the gut. […]
The appetite control compositions according to the invention include Gymnema sylvestre herb or, preferably, an extract of Gymnema sylvestre herb designed to maximize the quantity of gymnemic acid it contains. […]
In some embodiments, the appetite control compositions according to the invention include Glycyrrhiza glabra root or, preferably, an extract of Glycyrrhiza glabra root designed to maximize the quantity of glycyrrhizin it contains. […]

CC1(C)[C@@H](O[C@H]2O[C@H](C(=O)O)[C@@H](O)[C@H](O)[C@H]2O[C@@H]2O[C@H](C(=O)O)[C@@H](O)[C@H](O)[C@H]2O)CC[C@]2(C)[C@H]3C(=O)C=C4[C@@H]5C[C@@](C)(C(=O)O)CC[C@]5(C)CC[C@@]4(C)[C@]3(C)CC[C@@H]12 [glycyrrhizin]
effect on quantity of gymnemic acid required to block the sense of sweetness for 1 to 2 hours: effectively reduces the quantity of gymnemic acid required
